Test results: ChEMBL document CHEMBL5532698, “2,3-Dihydroquinazolin-4(1H)-ones and quinazolin-4(3H)-ones as broad-spectrum cytotoxic agents and their impact on tubulin polymerisation” (RSC Med Chem, 2024)
Activity calls are given as the source filed them. No cut-off for these calls is given here.

Legend:
A2780 [1] = experiment: Antiproliferative activity against human A2780 cells assessed as cell growth inhibition incubated for 72 hrs by MTT assay; assay type: functional
DU-145 [2] = experiment: Antiproliferative activity against human DU-145 cells assessed as cell growth inhibition at 25 uM incubated for 72 hrs by MTT assay relative to control; assay type: functional
Tubulin (Homo sapiens) [3] = biological target: T1, Tubulin (Homo sapiens) (UniProt P68371+Q9H4B7+P0DPH7+P68366+Q13509+Q71U36+P04350+Q3ZCM7+P07437+P68363+Q9BQE3+Q6PEY2+Q13885+Q9BVA1+Q9BUF5); experiment: Induction of tubulin (unknown origin) polymerization assessed as microtubule formation by measuring increase in fluorescence at 10 uM by fluorometric analysis; assay type: protein-complex assay
[4] = Cytotoxicity against human MCF-10A cells assessed as cell growth inhibition incubated for 72 hrs by MTT assay; assay type: toxicity, cell-based
A-431 [5] = experiment: Antiproliferative activity against human A-431 cells assessed as cell growth inhibition at 25 uM incubated for 72 hrs by MTT assay relative to control; assay type: functional
HT-29 [6] = experiment: Antiproliferative activity against human HT-29 cells assessed as cell growth inhibition at 25 uM incubated for 72 hrs by MTT assay relative to control; assay type: functional
U-87 MG [7] = experiment: Antiproliferative activity against human U87 cells assessed as cell growth inhibition at 25 uM incubated for 72 hrs by MTT assay relative to control; assay type: functional, U-87MG ATCC
MCF7 [8] = experiment: Antiproliferative activity against human MCF7 cells assessed as cell growth inhibition incubated for 72 hrs by MTT assay; assay type: functional
MIA PaCa-2 [9] = experiment: Antiproliferative activity against human MIA PaCa-2 cells assessed as cell growth inhibition incubated for 72 hrs by MTT assay; assay type: functional
U-87 MG [10] = experiment: Antiproliferative activity against human U87 cells assessed as cell growth inhibition incubated for 72 hrs by MTT assay; assay type: functional, U-87MG ATCC
[11] = Antiproliferative activity against human SJG2 cells assessed as cell growth inhibition at 25 uM incubated for 72 hrs by MTT assay relative to control; assay type: functional; details: SJ-G2
MIA PaCa-2 [12] = experiment: Antiproliferative activity against human MIA PaCa-2 cells assessed as cell growth inhibition at 25 uM incubated for 72 hrs by MTT assay relative to control; assay type: functional
BE(2)-C [13] = experiment: Antiproliferative activity against human BE2C cells assessed as cell growth inhibition at 25 uM incubated for 72 hrs by MTT assay relative to control; assay type: functional
A2780 [14] = experiment: Antiproliferative activity against human A2780 cells assessed as cell growth inhibition at 25 uM incubated for 72 hrs by MTT assay relative to control; assay type: functional
NCI-H460 [15] = experiment: Antiproliferative activity against human NCI-H460 cells assessed as cell growth inhibition at 25 uM incubated for 72 hrs by MTT assay relative to control; assay type: functional
NCI-H460 [16] = experiment: Antiproliferative activity against human NCI-H460 cells assessed as cell growth inhibition incubated for 72 hrs by MTT assay; assay type: functional
[17] = Antiproliferative activity against human SJG2 cells assessed as cell growth inhibition incubated for 72 hrs by MTT assay; assay type: functional; details: SJ-G2
BE(2)-C [18] = experiment: Antiproliferative activity against human BE2C cells assessed as cell growth inhibition incubated for 72 hrs by MTT assay; assay type: functional
[19] = Cytotoxicity against human MCF-10A cells assessed as cell growth inhibition at 25 uM incubated for 72 hrs by MTT assay relative to control; assay type: toxicity, cell-based
HT-29 [20] = experiment: Antiproliferative activity against human HT-29 cells assessed as cell growth inhibition incubated for 72 hrs by MTT assay; assay type: functional
MCF7 [21] = experiment: Antiproliferative activity against human MCF7 cells assessed as cell growth inhibition at 25 uM incubated for 72 hrs by MTT assay relative to control; assay type: functional
DU-145 [22] = experiment: Antiproliferative activity against human DU-145 cells assessed as cell growth inhibition incubated for 72 hrs by MTT assay; assay type: functional
A-431 [23] = experiment: Antiproliferative activity against human A-431 cells assessed as cell growth inhibition incubated for 72 hrs by MTT assay; assay type: functional
Tubulin (Homo sapiens) [24] = biological target: T1, Tubulin (Homo sapiens); experiment: Inhibition of tubulin (unknown origin) polymerization assessed as reduction microtubule formation at 10 uM by fluorometric analysis; assay type: protein-complex assay

| Structure (SMILES) | GI50 (A2780 [1]) [nM] | inhibition at 25 µM (DU-145 [2]) [%] | GI50 at 72 h [4] [nM] | inhibition at 25 µM (A-431 [5]) [%] | inhibition at 25 µM (HT-29 [6]) [%] | inhibition at 25 µM (U-87 MG [7]) [%] | GI50 (MCF7 [8]) [nM] | GI50 (MIA PaCa-2 [9]) [nM] | GI50 (U-87 MG [10]) [nM] | inhibition at 25 µM [11] [%] | inhibition at 25 µM (MIA PaCa-2 [12]) [%] | inhibition at 25 µM (BE(2)-C [13]) [%] | inhibition at 25 µM (A2780 [14]) [%] | inhibition at 25 µM (NCI-H460 [15]) [%] | GI50 (NCI-H460 [16]) [nM] | GI50 [17] [nM] | GI50 (BE(2)-C [18]) [nM] | inhibition at 72 h, 25 µM [19] [%] | GI50 (HT-29 [20]) [nM] | inhibition at 25 µM (MCF7 [21]) [%] | also measured |
| --- | --- | --- | --- | --- | --- | --- | --- | --- | --- | --- | --- | --- | --- | --- | --- | --- | --- | --- | --- | --- | --- |
| O=C1NC(CCc2ccccc2)Nc2ccccc21 (stereo unspecified) | 3900 | 27 | 14000 | 14 | 29 | < 10 | 14000 | 13000 | 19000 | 16 | 27 | 19 | 29 | < 10 | 12000 | 16000 | 3600 | 23 | 3500 | 38 | Activity (Tubulin (Homo sapiens) [3]; filed as activator): Active; GI50 (DU-145 [22]): 17000 nM; GI50 (A-431 [23]): 3600 nM |
| O=C1NC(/C=C/c2ccccc2[N+](=O)[O-])Nc2ccccc21 (stereo unspecified) |  | 66 |  | 40 | 37 | 24 |  |  |  | 81 | 32 | 53 | 69 | 35 |  |  |  | 13 |  | 55 | Activity (Tubulin (Homo sapiens) [3]): inactive |
| O=c1[nH]c(/C=C/c2ccccc2)nc2ccccc12 | 450 | > 100 | 2300 | > 100 | > 100 | > 100 | 1300 | 2300 | 2700 | > 100 | 96 | > 100 | > 100 | > 100 | 2500 | 2200 | 500 | > 100 | 400 | > 100 | Activity (Tubulin (Homo sapiens) [3]): inactive; GI50 (DU-145 [22]): 2400 nM; GI50 (A-431 [23]): 640 nM |
| COc1ccc(/C=C/c2nc3ccccc3c(=O)[nH]2)cc1 | 12000 | 41 | 11000 | 45 | 78 | 24 | 2600 | 5500 | > 50000 | 89 | 67 | 66 | 66 | 60 | 11000 | 6400 | 4400 | 60 | 3800 | > 100 | inhibition (Tubulin (Homo sapiens) [24]): Active; GI50 (DU-145 [22]): 45000 nM; GI50 (A-431 [23]): 33000 nM |
| Cc1ccc2[nH]cc(-c3nc4ccccc4c(=O)[nH]3)c2c1 | 1300 |  | 1200 |  |  |  | 280 | 1000 | 16000 |  |  |  |  |  | 3700 | > 50000 | 630 |  | 390 |  | Activity (Tubulin (Homo sapiens) [3]; filed as activator): Active; GI50 (DU-145 [22]): > 50000 nM; GI50 (A-431 [23]): 570 nM |
| COc1cccc(/C=C/c2nc3ccccc3c(=O)[nH]2)c1 | 2600 | 78 | 2200 | > 100 | > 100 | 75 | 470 | 2900 | 10000 | 100 | 93 | 99 | > 100 | > 100 | 2200 | 2800 | 2100 | 95 | 900 | > 100 | Activity (Tubulin (Homo sapiens) [3]): inactive; GI50 (DU-145 [22]): 3900 nM; GI50 (A-431 [23]): 2600 nM |
| CC(=O)O[C@H]1C(=O)[C@@]2(C)[C@H]([C@H](OC(=O)c3ccccc3)[C@]3(O)C[C@H](OC(=O)[C@H](O)[C@@H](NC(=O)c4ccccc4)c4ccccc4)C(C)=C1C3(C)C)[C@]1(OC(C)=O)CO[C@@H]1C[C@@H]2O |  |  |  |  |  |  |  |  |  |  |  |  |  |  |  |  |  |  |  |  | Activity (Tubulin (Homo sapiens) [3]; filed as activator): Active |
| O=c1[nH]c(/C=C/c2ccc(O)cc2)nc2ccccc12 | 300 | > 100 | 380 | > 100 | > 100 | > 100 | 220 | 340 | 480 | > 100 | > 100 | > 100 | > 100 | > 100 | 370 | 290 | 250 | > 100 | 350 | > 100 | GI50 (DU-145 [22]): 350 nM; GI50 (A-431 [23]): 280 nM |
| COc1cccc(C2NC(=O)c3ccccc3N2)c1 (stereo unspecified) | 2600 | > 100 | 3200 | > 100 | > 100 | 99 | 5800 | 4100 | 2700 | > 100 | 94 | > 100 | 100 | 100 | 3300 | 3300 | 2300 | > 100 | 1700 | 85 | GI50 (DU-145 [22]): 2300 nM; GI50 (A-431 [23]): 2100 nM |
